Drawing on ChEMBL document CHEMBL3879911, “Heteroaryl compounds useful as inhibitors of E1 activating enzymes” (2008), this text covers IC50 for 17 compounds.

Each structure is given as a SMILES string.

The assay has as its target T1, NEDD8 activating enzyme (Homo sapiens, UniProt Q8TBC4).
T1 sequence (Q8TBC4 whole entry): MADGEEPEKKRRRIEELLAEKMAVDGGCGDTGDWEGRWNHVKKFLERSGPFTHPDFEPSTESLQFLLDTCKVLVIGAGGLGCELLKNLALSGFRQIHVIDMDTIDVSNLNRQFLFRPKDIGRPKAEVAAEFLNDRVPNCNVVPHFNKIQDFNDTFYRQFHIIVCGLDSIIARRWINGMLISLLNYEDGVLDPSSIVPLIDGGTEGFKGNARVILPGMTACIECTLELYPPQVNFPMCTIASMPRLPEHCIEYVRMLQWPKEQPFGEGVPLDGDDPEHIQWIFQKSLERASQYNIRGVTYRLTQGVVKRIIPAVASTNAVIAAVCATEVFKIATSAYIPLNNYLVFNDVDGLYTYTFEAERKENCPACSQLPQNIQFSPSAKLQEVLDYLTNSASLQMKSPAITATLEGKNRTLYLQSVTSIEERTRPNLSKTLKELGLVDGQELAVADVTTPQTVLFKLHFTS
T1 sequence (Q13564 whole entry): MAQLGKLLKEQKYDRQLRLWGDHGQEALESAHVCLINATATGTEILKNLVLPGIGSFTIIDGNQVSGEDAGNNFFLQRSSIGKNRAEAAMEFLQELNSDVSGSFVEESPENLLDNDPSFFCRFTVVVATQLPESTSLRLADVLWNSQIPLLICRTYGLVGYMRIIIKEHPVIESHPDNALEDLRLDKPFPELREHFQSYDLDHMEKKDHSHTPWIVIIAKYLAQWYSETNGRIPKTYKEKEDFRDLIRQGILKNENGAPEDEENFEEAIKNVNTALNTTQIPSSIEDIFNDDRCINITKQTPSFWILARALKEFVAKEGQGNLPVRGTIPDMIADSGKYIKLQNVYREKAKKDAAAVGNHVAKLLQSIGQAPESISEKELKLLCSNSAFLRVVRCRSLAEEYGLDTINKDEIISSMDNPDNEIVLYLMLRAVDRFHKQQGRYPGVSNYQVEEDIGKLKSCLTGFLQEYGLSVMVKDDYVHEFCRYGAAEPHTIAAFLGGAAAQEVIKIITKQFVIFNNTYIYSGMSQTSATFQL
Put plainly: Inhibition of recombinant human NAEalpha/N-terminal His-tagged NAEbeta expressed in baculovirus infected insect Sf9 cells using N-terminal FLAG tagged Nedd8 as substrate incubated for 105 mins in presence of N-terminal GST-tagged Ubc12 by FRET assay.
By IC50 is commonly meant the concentration needed to halve the response being measured. Consider `NS(=O)(=O)OC[C@@H]1C[C@@H](Nc2cc(N[C@H]3CCc4ccccc43)ncn2)C[C@@H]1O`, for which the IC50 was ≤ 0.5 µM.

As to `CN(C)c1ccc(-c2nc3ncnc(O[C@@H]4C[C@@H](COS(N)(=O)=O)[C@@H](O)C4)c3[nH]2)c2ccccc12`, the IC50 was ≤ 0.5 µM.

With `Cc1nc(N[C@H]2CCc3ccccc32)nc(N[C@@H]2C[C@H](COS(N)(=O)=O)[C@@H](O)[C@H]2O)n1`, the IC50 is ≤ 0.5 µM.

For `CC1(C)C[C@H](Nc2ncnc(N[C@@H]3C[C@@H](COS(N)(=O)=O)[C@@H](O)C3)c2F)c2ccccc21`, the IC50 is ≤ 0.5 µM.

Consider `NS(=O)(=O)OC[C@@H]1C[C@@H](Oc2cc(N3Cc4ccccc4C3)ncn2)C[C@@H]1O`, for which the IC50 lay in the range of 0.5 to 10 µM.

With `NS(=O)(=O)OC[C@@H]1C[C@@H](Nc2ncnc3nc(-c4ccc(OCc5ccccc5)cc4)[nH]c23)C[C@@H]1O`, the IC50 was ≤ 0.5 µM.

With `NS(=O)(=O)OC[C@@H]1C[C@@H](Oc2ncnc3nc(-c4c[nH]c5ccccc45)[nH]c23)C[C@@H]1O`, the IC50 is ≤ 0.5 µM.

As to `NS(=O)(=O)OC[C@@H]1C[C@@H](Nc2cc(N[C@H]3CCc4ccccc43)ncn2)[C@H](O)[C@@H]1O`, the IC50 is ≤ 0.5 µM.

On to `NS(=O)(=O)OC[C@H]1C[C@@H](Nc2cc(N[C@H]3CCc4c(F)ccc(F)c43)ncn2)[C@H](O)[C@@H]1O`, for which the IC50 is ≤ 0.5 µM.

For the compound `NS(=O)(=O)OC[C@@H]1C[C@@H](Nc2ncnc3nc(-c4cccc5c4OCC5)[nH]c23)C[C@@H]1O`, the IC50 was ≤ 0.5 µM.

Take `CO[C@H]1Cc2ccccc2[C@H]1Nc1cc(N[C@@H]2C[C@H](COS(N)(=O)=O)[C@@H](O)[C@H]2O)ncn1`: the IC50 is ≤ 0.5 µM.

In the case of `NS(=O)(=O)OC[C@@H]1C[C@@H](Nc2ncnc(N[C@H]3CCc4ccccc43)n2)C[C@@H]1O`, the half-inhibitory concentration (IC50) is ≤ 0.5 µM.

Regarding `CN(Cc1ccccc1)c1cc(N[C@@H]2C[C@H](COS(N)(=O)=O)[C@@H](O)[C@H]2O)ncn1`, the IC50 was > 10 µM.

`NS(=O)(=O)OC[C@@H]1C[C@@H](Nc2cc(CCc3ccccc3)ncn2)C[C@@H]1O`: the IC50 lay within 0.5 to 10 µM.

Consider `NS(=O)(=O)OC[C@@H]1C[C@@H](Nc2ncnc3[nH]c(-c4ccccc4-c4ccccc4)nc23)C[C@@H]1O`, for which the IC50 lay within 0.5 to 10 µM.

Consider `CC1(C)C[C@H](Nc2cc(N[C@@H]3C[C@@H](COS(N)(=O)=O)[C@@H](O)C3)ncn2)c2ccccc21`, for which the IC50 was ≤ 0.5 µM.

For `CN(C)c1ccc(-c2nc3c(N[C@@H]4C[C@@H](COS(N)(=O)=O)[C@@H](O)C4)ncnc3[nH]2)c2ccccc12`, the IC50 is ≤ 0.5 µM.
